10 compounds from US6187905A, “Alpha-ketoamide derivatives” (Hoffmann-La Roche Inc., priority 1998, dated 2001) can be followed below.

Molecules are shown by their SMILES. pIC50: −log10 of the molar value. *1 amine or outer side, *2 acyl side, *3 side chain or, on linkers, in order; H or OH if unused. Where a SMILES comes first, the peptide text is derived from it. [ ]: non-standard residue; d: D form. The star is where a group is joined. Phe(2-Me) = Cc1ccccc1C[C@H](N)C(=O)O; NleCONH2 = CCCC[C@H](N*)C(=O)C(N)=O; Suc = O=C(CCC(=O)[*:2])[*:1]; Tle = CC(C)(C)[C@H](N)C(=O)O

The target of one assay is HCV proteinase (Hepatitis C virus genotype 1a, UniProt P27958). The assay is described as follows: HCV proteinase inhibition assay (described in WO 98/22496). The format is biochemical.
Sequence of HCV proteinase (P27958 1027-1208): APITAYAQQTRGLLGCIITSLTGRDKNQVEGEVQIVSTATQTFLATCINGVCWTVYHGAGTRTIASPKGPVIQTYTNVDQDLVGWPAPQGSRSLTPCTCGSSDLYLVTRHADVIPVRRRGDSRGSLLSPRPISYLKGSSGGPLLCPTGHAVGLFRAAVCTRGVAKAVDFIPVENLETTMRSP
Conditions: not given
The text has this: As mentioned earlier, the compounds of formula I and their salts are inhibitors of proteases of viral origin. For example, all compounds of formula 1 are inhibitors against HCV protease.
In the case of `CC[C@H](NC(=O)C(=O)C(CC(F)(F)F)NC(=O)[C@H](CC(C)C)NC(=O)[C@@H](NC(=O)[C@H](Cc1ccccc1C)NC(=O)[C@H](CCC(=O)O)NC(=O)[C@H](CC(=O)O)NC(=O)CCC(=O)O)C(C)(C)C)c1ccccc1` (mixture of isomers) [B, 3(RS)-[[N-[N-[N-[N-[N-(3-Carboxypropionyl)-L-α-aspartyl]-L-α-glutamyl]-2-methyl-L-phenylalanyl]-3-methyl-L-valyl]-L-leucyl]amino]-5,5,5-trifluoro-2-oxo-N-(1(S)-phenylpropyl)valeramide], the pIC50 is 8.15.
Same read-out and setting: then `Cc1ccccc1C[C@H](NC(=O)[C@H](CCC(=O)O)NC(=O)[C@H](CC(=O)O)NC(=O)CCC(=O)O)C(=O)N[C@H](C(=O)N[C@@H](CC(C)C)C(=O)NC(CC(F)(F)F)C(=O)C(=O)N[C@H](c1ccccc1)C(C)C)C(C)(C)C` (mixture of isomers) [C, 3(RS)-[[N-[N-[N-[N-[N-(3-Carboxypropionyl)-L-α-aspartyl]-L-α-glutamyl]-2-methyl-L-phenylalanyl]-3-methyl-L-valyl]-L-leucyl]amino]-5,5,5-trifluoro-N-(2-methyl-1(S)-phenylpropyl)-2-oxovaleramide], with 8.15.
On the same count and under the same terms, then `Cc1ccccc1C[C@H](NC(=O)[C@H](CCC(=O)O)NC(=O)[C@H](CC(=O)O)NC(=O)CCC(=O)O)C(=O)N[C@H](C(=O)N[C@@H](CC(C)C)C(=O)NC(CC(F)(F)F)C(=O)C(=O)NCc1ccc(O)cc1)C(C)(C)C` (mixture of isomers) [E, 3(RS)-[[N-[N-[N-[N-[N-(3-Carboxypropionyl)-L-α-aspartyl]-L-α-glutamyl]-2-methyl-L-phenylalanyl]-3-methyl-L-valyl]-L-leucyl]amino]-5,5,5-trifluoro-N-(4-hydroxybenzyl)-2-oxovaleramide], with 8.40; and `COc1cccc(CNC(=O)C(=O)C(CC(F)(F)F)NC(=O)[C@H](CC(C)C)NC(=O)[C@@H](NC(=O)[C@H](Cc2ccccc2C)NC(=O)[C@H](CCC(=O)O)NC(=O)[C@H](CC(=O)O)NC(=O)CCC(=O)O)C(C)(C)C)c1` (mixture of isomers) [F, 3(RS)-[[N-[N-[N-[N-[N-(3-Carboxypropionyl)-L-α-aspartyl]-L-α-glutamyl]-2-methyl-L-phenylalanyl]-3-methyl-L-valyl]-L-leucyl]amino]-5,5,5-trifluoro-N-(3-methoxybenzyl)-2-oxovaleramide], with 8.22; and `Cc1ccccc1C[C@H](NC(=O)[C@H](CCC(=O)O)NC(=O)[C@H](CC(=O)O)NC(=O)CCC(=O)O)C(=O)N[C@H](C(=O)N[C@@H](CC(C)C)C(=O)NC(CC(F)(F)F)C(=O)C(=O)N[C@@H](C)c1ccccc1)C(C)(C)C` (mixture of isomers) [G, 3(RS)-[[N-[N-[N-[N-[N-(3-Carboxypropionyl)-L-α-aspartyl]-L-α-glutamyl]-2-methyl-L-phenylalanyl]-3-methyl-L-valyl]-L-leucyl]amino]-5,5,5-trifluoro-N-(α(S)-methylbenzyl)-2-oxovaleramide], with 8.40.
Still for that read-out and setting: then `Cc1ccccc1C[C@H](NC(=O)[C@H](CCC(=O)O)NC(=O)[C@H](CC(=O)O)NC(=O)CCC(=O)O)C(=O)N[C@H](C(=O)N[C@@H](CC(C)C)C(=O)NC(CC(F)(F)F)C(=O)C(=O)NCc1ccccc1)C(C)(C)C` (mixture of isomers) [H, N-Benzyl-3(RS)-[[N-[N-[N-[N-[N-(3-carboxypropionyl)-L-α-aspartyl]-L-α-glutamyl]-2-methyl-L-phenylalanyl]-3-methyl-L-valyl]-L-leucyl]amino]-5,5,5-trifluoro-2-oxovaleramide], with 8.40.
For `Cc1ccccc1C[C@H](NC(=O)[C@H](CCC(=O)O)NC(=O)[C@H](CC(=O)O)NC(=O)CCC(=O)O)C(=O)N[C@H](C(=O)N[C@@H](CC(C)C)C(=O)NC(CC(F)(F)F)C(=O)C(N)=O)C(C)(C)C` (single isomer, unassigned) [D, 3(R or S)-[[N-[N-[N-[N-[N-(3-Carboxypropionyl)-L-α-aspartyl]-L-α-glutamyl]-2-methyl-L-phenylalanyl]-3-methyl-L-valyl]-L-leucyl]amino]-5,5,5-trifluoro-2-oxovaleramide], the pIC50 was 8.15.
Still for that read-out and setting: then `CCCC[C@H](NC(=O)[C@H](CC(C)C)NC(=O)[C@@H](NC(=O)[C@H](Cc1ccccc1C)NC(=O)[C@H](CCC(=O)O)NC(=O)[C@H](CC(=O)O)NC(=O)CCC(=O)O)C(C)(C)C)C(=O)C(N)=O` [J, 3(S)-[[N-[N-[N-[N-[N-(3-Carboxypropionyl)-L-α-aspartyl]-L-α-glutamyl]-2-methyl-L-phenylalanyl]-3-methyl-L-valyl]-L-leucyl]amino]-2-oxoheptanamide] (Suc-DE[Phe(2-Me)][Tle]L-NleCONH2), with 7.94.

The same assay, now with this note: read-out: HCV proteinase IC50.
With `Cc1ccccc1C[C@H](NC(=O)[C@H](CCC(=O)O)NC(=O)[C@H](CC(=O)O)NC(=O)CCC(=O)O)C(=O)N[C@H](C(=O)N[C@@H](CC(C)C)C(=O)NC(CC(F)(F)F)C(=O)C(=O)N[C@@H](C)c1ccc2ccccc2c1)C(C)(C)C` (mixture of isomers) [A], the negative-log IC50 (pIC50) is 8.40.
`Cc1ccccc1C[C@H](NC(=O)[C@H](CCC(=O)O)NC(=O)[C@H](CC(=O)O)NC(=O)CCC(=O)O)C(=O)N[C@H](C(=O)N[C@@H](CC(C)C)C(=O)NC(CC(F)(F)F)C(=O)C(=O)N[C@@H](C)c1ccc2ccccc2c1)C(C)(C)C` (mixture of isomers) [I]: the pIC50 is 8.10.
